In patent publication US9023865B2, “Compounds that are ERK inhibitors” (Merck Sharp & Dohme Corp., priority 2011, dated 2015) one finds IC50 data, which are given here for 61 compounds.

Usually IC50 stands for the concentration that gives 50% inhibition.

For this experiment, the target named is Active Human ERK2 (hERK2) (Homo sapiens (Human), UniProt P28482). Put plainly: Active Human ERK2 (hERK2) Activity Assay (IMAP-FP). The class given is biochemical. Put shortly: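 Phosphorylation by activated human ERK2 (0.5 nM) at 30 μM ATP, peptide substrate 900 nM unlabeled with 80 nM labeled, proceeds 60 min. IMAP beads stop the reaction; after 60 min equilibration, product is measured by fluorescence polarization.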

Setting [1] is: phosphorylated active hERK2, 30 μM ATP, average, read-out: ERK 2 Human average IC50.
Setting [2] is: read-out: AERK2 IC50 (Active human ERK2 Activity Assay).

Read-outs that look alike come from different tables or passages of the source.

Chain of Active Human ERK2 (hERK2) (P28482 whole entry): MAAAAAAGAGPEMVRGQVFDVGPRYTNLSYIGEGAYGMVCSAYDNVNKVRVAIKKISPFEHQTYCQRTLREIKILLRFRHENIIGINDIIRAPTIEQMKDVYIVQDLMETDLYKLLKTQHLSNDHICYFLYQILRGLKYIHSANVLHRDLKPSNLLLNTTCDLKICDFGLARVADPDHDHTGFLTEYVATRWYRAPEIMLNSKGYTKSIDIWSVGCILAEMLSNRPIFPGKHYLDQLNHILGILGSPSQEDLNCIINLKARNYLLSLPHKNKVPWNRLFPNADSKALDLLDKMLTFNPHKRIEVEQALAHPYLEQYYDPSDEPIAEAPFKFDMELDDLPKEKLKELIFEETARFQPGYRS

Turning to `C[C@@H](NC(=O)Nc1cc2[nH]nc(-c3ccnc(F)c3)c2cn1)c1ccc(F)c(Cl)c1` [Example 81, 1-[(1R)-1-(3-chloro-4-fluorophenyl)ethyl]-3-[3-(2-fluoropyridin-4-yl)-1H-pyrazolo[4,3-c]pyridin-6-yl]urea], under setting [1], the half-inhibitory concentration (IC50) was found to be 1.91 nM.

As to `Cc1cc(-c2n[nH]c3cc(NC(=O)N[C@H](CO)c4cccc5cc[nH]c45)ncc23)ccn1` [Example 362], the IC50 under setting [1] came to 0.288 nM.

Take `O=C(NCc1ccccc1)Nc1cc2[nH]nc(C3CC3)c2cn1` [Example 142]: the IC50 under setting [1] was found to be 17.4 nM.

For the compound `O=C(Nc1cc2[nH]nc(C(F)F)c2cn1)N[C@H](COCC1CC1)c1ccccc1` [Example 693], under setting [1], the concentration for half-maximal inhibition (IC50) stood at 21.4 nM.

Regarding `Cc1cc(-c2n[nH]c3cc(NC(=O)NCc4ccns4)ncc23)ccn1` [Example 429], the concentration for half-maximal inhibition (IC50) under setting [1] amounted to 1.12 nM.

As for `COc1cccc(F)c1CN1CCC[C@@H](NC(=O)Nc2cc3[nH]nc(-c4ccc5nn(C)cc5c4)c3cn2)C1` [Example 662], under setting [1], the IC50 is 0.929 nM.

Take `COC[C@@H](NC(=O)Nc1cc2[nH]nc(-c3ccc(F)cc3)c2cn1)c1ccccn1` [Example 500]: the IC50 under setting [1] is 0.778 nM.

For `[2H]C([2H])([2H])OC[C@@H](NC(=O)Nc1cc2[nH]nc(C3CC3)c2cn1)c1ccccc1` [Example 161], the IC50 under setting [1] worked out at 5.8 nM.

In the case of `C[C@@H](NC(=O)Nc1cc2[nH]nc(-c3ccc(C#N)nc3)c2cn1)c1ccc(F)cc1` [Example 254], the IC50 under setting [1] is 4.59 nM.

Regarding `Cc1cc(-c2n[nH]c3cc(NC(=O)NC4(c5ccc(Cl)cc5)CCOCC4)ncc23)ccn1` [Example 77, 1-[4-(4-chlorophenyl)tetrahydro-2H-pyran-4-yl]-3-[3-(2-methylpyridin-4-yl)-1H-pyrazolo[4,3-c]pyridin-6-yl]urea], the IC50 under setting [1] stood at 15.1 nM.

Regarding `Cc1cc(-c2n[nH]c3cc(NC(=O)NCc4c(C)cc(Cl)cc4Cl)ncc23)ccn1` [Example 514], the IC50 under setting [1] was 2.87 nM.

As to `COC[C@@H](NC(=O)Nc1cc2[nH]nc(C3=NOC(C)C3)c2cn1)c1ccccc1` (stereo partly drawn) [Example 686], the half-maximal inhibitory concentration (IC50) under setting [1] was found to be 23.8 nM.

For `Cc1cc(-c2n[nH]c3cc(NC(=O)N[C@@H]4CN(C)C[C@H]4c4ccccc4)ncc23)ccn1` [Example 181], under setting [1], the concentration for half-maximal inhibition (IC50) came to 0.217 nM.

As for `Cc1cc(-c2n[nH]c3cc(NC(=O)N[C@@H]4CCCc5cccnc54)ncc23)ccn1` [Example 262, 1-[3-(2-methylpyridin-4-yl)-1H-pyrazolo[4,3-c]pyridin-6-yl]-3-[(8R)-5,6,7,8-tetrahydroquinolin-8-yl]urea], the IC50 under setting [1] was 1.25 nM.

For `Cc1cc(-c2n[nH]c3cc(NC(=O)N[C@@H]4CCc5ccc(F)cc54)ncc23)ccn1` [Example 270], the IC50 under setting [1] is 3.73 nM.

As for `CCOCc1n[nH]c2cc(NC(=O)N[C@H](C)c3ccccc3)ncc12` [Example 620, 1-[3-(ethoxymethyl)-1H-pyrazolo[4,3-c]pyridin-6-yl]-3-[(1R)-1-phenylethyl]urea], under setting [1], the half-inhibitory concentration (IC50) came to 138 nM.

Take `COc1ccc(CNC(=O)Nc2cc3[nH]nc(C4CC4)c3cn2)cc1` [Example 155]: the concentration for half-maximal inhibition (IC50) under setting [1] turned out to be 60.1 nM.

For `Cc1cc(-c2n[nH]c3cc(NC(=O)N[C@H]4CCCOc5ccccc54)ncc23)ccn1` [Example 284], under setting [1], the half-maximal inhibitory concentration (IC50) came out at 8.28 nM.

Consider `Cc1cc(-c2n[nH]c3cc(NC(=O)N[C@@H](C)c4ccc(Cl)c(C)c4)ncc23)ccn1` [Example 340], for which the IC50 under setting [1] is 723 nM.

As for `Cc1cc(-c2n[nH]c3c(F)c(NC(=O)N[C@H](C)c4ccccc4)ncc23)ccn1` [Example 95, 1-[7-fluoro-3-(2-methylpyridin-4-yl)-1H-pyrazolo[4,3-c]pyridin-6-yl]-3-[(1R)-1-phenylethyl]urea], the concentration for half-maximal inhibition (IC50) by setting is: under setting [1], 0.235 nM; under setting [2], 0.2 to 1.7 nM.

For `CN1CC[C@@H](NC(=O)Nc2cc3[nH]nc(-c4ccc(F)cc4)c3cn2)C1` [Example 316], under setting [1], the IC50 stood at 1.84 nM.

As for `C[C@@H](NC(=O)Nc1cc2[nH]nc(C(=O)NCC3(O)CC3)c2cn1)c1ccccc1` [Example 124], the IC50 under setting [1] came out at 6.38 nM.

For `Cc1cc(-c2n[nH]c3cc(NC(=O)NCc4ccc(F)cc4F)ncc23)ccn1` [Example 513], the 50% inhibitory concentration (IC50) under setting [1] amounted to 1.56 nM.

Turning to `COC[C@H](NC(=O)Nc1cc2[nH]nc(-c3cnn(C)c3)c2cn1)c1ccccc1` [Example 600, 1-[(1R)-2-methoxy-1-phenylethyl]-3-[3-(1-methyl-1H-pyrazol-4-yl)-1H-pyrazolo[4,3-c]pyridin-6-yl]urea], the IC50 under setting [1] turned out to be 31.9 nM.

Consider `COC[C@@H](NC(=O)Nc1cc2[nH]nc(-c3ccc4cn(C)nc4c3)c2cn1)c1ccccc1` [Example 614], for which, under setting [1], the concentration for half-maximal inhibition (IC50) worked out at 0.481 nM.

For `Cc1cc(-c2n[nH]c3cc(NC(=O)N4CCN(c5ccc(F)cc5)C[C@H]4C)ncc23)ccn1` [Example 288], under setting [1], the half-maximal inhibitory concentration (IC50) stood at 2290 nM.

As for `Cn1cc(-c2n[nH]c3cc(NC(=O)NCC4CCC4)ncc23)cn1` [Example 590], the IC50 under setting [1] stood at 2.06 nM.

Consider `Cc1cc(-c2n[nH]c3cc(NC(=O)NCC(O)C(F)F)ncc23)ccn1` (stereo not drawn) [Example 189], for which the concentration for half-maximal inhibition (IC50) under setting [1] came out at 10.3 nM.

As for `Cc1cc(-c2n[nH]c3cc(NC(=O)NC(C)c4ccc(F)cn4)ncc23)ccn1` (stereo not drawn) [Example 364], the concentration for half-maximal inhibition (IC50) under setting [1] is 1.66 nM.

As to `O=C(NCCC1CCOC1)Nc1cc2[nH]nc(-c3ccc(F)cc3)c2cn1` (stereo not drawn) [Example 219], the concentration for half-maximal inhibition (IC50) under setting [1] came out at 1.68 nM.

On to `CC(C)Oc1ccc(-c2n[nH]c3cc(NC(=O)N[C@H](C)c4ccccc4)ncc23)cn1` [Example 28, 1-{3-[6-(1-methylethoxy)pyridin-3-yl]-1H-pyrazolo[4,3-c]pyridin-6-yl}-3-[(1R)-1-phenylethyl]urea], for which the IC50 under setting [1] is 3.63 nM.

For `Cc1cc(-c2n[nH]c3cc(NC(=O)N4CC(c5cccc(F)c5)C4)ncc23)ccn1` [Example 278], the IC50 under setting [1] was 43.4 nM.

`Cc1cc(-c2n[nH]c3cc(NC(=O)NC4(c5ccccc5)CC4)ncc23)ccn1` [Example 350]: under setting [1], the IC50 is 10.6 nM.

For `CCNC(=O)Nc1cc2[nH]nc(-c3ccc(F)cc3)c2cn1` [Example 608], under setting [1], the IC50 is 3.81 nM.

Take `Cc1cc(-c2n[nH]c3cc(NC(=O)NCc4nnc(-c5ccccc5)[nH]4)ncc23)ccn1` [Example 397]: the IC50 under setting [1] is 48.1 nM.

In the case of `COc1ccc(CNC(=O)Nc2cc3[nH]nc(-c4ccc(F)cc4)c3cn2)cc1OC` [Example 33, 1-(3,4-dimethoxybenzyl)-3-(3-(4-fluorophenyl)-1H-pyrazolo[4,3-c]pyridin-6-yl)urea], the IC50 under setting [1] was 15.2 nM.

In the case of `COCCn1cc(-c2n[nH]c3cc(NC(=O)N[C@H](C)c4ccccc4)ncc23)cn1` [Example 289], the half-maximal inhibitory concentration (IC50) under setting [1] was found to be 28 nM.

With `COc1ccc(-c2n[nH]c3cc(NC(=O)N[C@H](C)c4ccccc4)ncc23)cc1` [Example 676], under setting [1], the half-inhibitory concentration (IC50) is 0.94 nM.

Consider `Cc1cc(-c2n[nH]c3cc(NC(=O)NCc4ccccc4Cl)ncc23)ccn1` [Example 439], for which the IC50 under setting [1] worked out at 1.3 nM.

On to `C[C@@H](NC(=O)Nc1cc2[nH]nc(CNCC(F)(F)F)c2cn1)c1ccccc1` [Example 561], for which the IC50 under setting [1] was 15 nM.

Take `O=C(NCc1ccc(F)cc1)Nc1cc2[nH]nc(C3CCC3)c2cn1` [Example 146]: the 50% inhibitory concentration (IC50) under setting [1] is 12.9 nM.

As for `Cc1cc(-c2n[nH]c3cc(NC(=O)NC(C)C4CCOC4)ncc23)ccn1` (stereo not drawn) [Example 528], under setting [1], the IC50 was found to be 12.7 nM.

Turning to `C[C@@H](NC(=O)Nc1cc2[nH]nc(-c3ccc(-n4nccn4)cc3)c2cn1)c1ccc(F)cc1` [Example 247], the IC50 under setting [1] is 45 nM.

For the compound `Cc1cc(-c2n[nH]c3cc(NC(=O)NCc4csc(C)n4)ncc23)ccn1` [Example 43, 1-[3-(2-methylpyridin-4-yl)-1H-pyrazolo[4,3-c]pyridin-6-yl]-3-[(2-methyl-1,3-thiazol-4-yl)methyl]urea], the half-inhibitory concentration (IC50) was 0.934 nM under setting [1] and 0.2 to 1.7 nM under setting [2].

As for `Cc1cc(-c2n[nH]c3cc(NC(=O)N[C@@H]4C[C@H]4c4ccccc4)ncc23)ccn1` [Example 583], under setting [1], the IC50 was 0.917 nM.

`O=C(NCC1CCC1)Nc1cc2[nH]nc(-c3ccnc(F)c3)c2cn1` [Example 591]: under setting [1], the IC50 came to 1.54 nM.

For the compound `O=C(NCc1ncco1)Nc1cc2[nH]nc(-c3ccc(F)cc3)c2cn1` [Example 221], the IC50 under setting [1] came out at 4.49 nM.

On to `Cc1cc(-c2n[nH]c3cc(NC(=O)N[C@@H](C)c4ccncc4)ncc23)ccn1` [Example 235], for which, under setting [1], the IC50 was determined as 21.9 nM.

For `C[C@@H](NC(=O)Nc1cc2[nH]nc(C(=O)NCC3(O)CCC3)c2cn1)c1ccccc1` [Example 136], under setting [1], the IC50 worked out at 11.9 nM.

Regarding `Cc1cc(-c2n[nH]c3cc(NC(=O)NC4CCCC(Oc5cccc(F)c5)C4)ncc23)ccn1` (stereo not drawn) [Example 657], the IC50 under setting [1] was determined as 4.67 nM.

In the case of `Cc1cc(-c2n[nH]c3c(F)c(NC(=O)N[C@H](C)c4ccc(Cl)cc4)ncc23)ccn1` [Example 534], the IC50 under setting [1] was determined as 0.509 nM.

For the compound `CC[C@@H](NC(=O)Nc1cc2[nH]nc(-c3ccnc(C)c3)c2cn1)c1ccc(Cl)cc1` [Example 414], under setting [1], the half-maximal inhibitory concentration (IC50) came to 0.755 nM.

For `Cc1cc(-c2n[nH]c3cc(NC(=O)Nc4noc5cccnc45)ncc23)ccn1` [Example 493], the half-inhibitory concentration (IC50) under setting [1] came out at 0.428 nM.

For the compound `C[C@@H](NC(=O)Nc1cc2[nH]nc(-c3ccc(OC(F)(F)F)cc3)c2cn1)c1ccccc1` [Example 674], the half-inhibitory concentration (IC50) under setting [1] worked out at 13.2 nM.

On to `COC[C@@H](NC(=O)Nc1cc2[nH]nc(-c3ccc(C#N)cc3)c2cn1)c1ccccc1` [Example 607], for which, under setting [1], the IC50 was 0.335 nM.

As to `Cc1cc(-c2n[nH]c3cc(NC(=O)N[C@@H]4[C@@H](c5ccccc5)CN(C)[C@@H]4C)ncc23)ccn1` [Example 568], the half-inhibitory concentration (IC50) under setting [1] was found to be 0.479 nM.

As for `Cc1cc(-c2n[nH]c3cc(NC(=O)N[C@@H]4CN(C)C[C@H]4c4cccc(Cl)c4)ncc23)ccn1` [Example 581], the half-maximal inhibitory concentration (IC50) under setting [1] was found to be 0.233 nM.

On to `Cc1cc(-c2n[nH]c3cc(NC(=O)N[C@H](C)c4ccccn4)ncc23)ccn1` [Example 177], for which the IC50 under setting [1] stood at 0.914 nM.

Turning to `CCNC(=O)c1n[nH]c2cc(NC(=O)N[C@H](C)c3ccccc3)ncc12` [Example 138], under setting [1], the IC50 stood at 5.28 nM.

`Cc1cc(-c2n[nH]c3cc(NC(=O)NCC4COc5ccccc5O4)ncc23)ccn1` (stereo not drawn) [Example 459]: the IC50 under setting [1] came to 2.74 nM.

`Cc1cc(-c2n[nH]c3cc(NC(=O)N[C@H]4CN(C)C[C@@H]4C)ncc23)ccn1` [Example 205]: the IC50 under setting [1] was 15.1 nM.
